In ChEMBL document CHEMBL1141520, “New cytotoxic saturated and unsaturated cyclohexanones from Anthemis maritima” (Bioorg Med Chem Lett, 2008):

Experiments:
Format in all cases: functional, cell-based
[1] = test system: Caco-2; test: Antiproliferative activity against human CaCo2 cells after 72 hrs by WST1 based assay; settings: Caco-2, 72 h
[2] = test system: HCT-116; test: Antiproliferative activity against human HCT116 cells after 72 hrs by WST1 based assay; settings: HCT-116, 72 h
[3] = test system: Jurkat; test: Antiproliferative activity against human Jurkat T cells after 72 hrs by WST1 based assay
[4] = test system: U-937; test: Antiproliferative activity against human U937 cells after 72 hrs by WST1 based assay; settings: U-937, 72 h
[5] = test system: HL-60; test: Antiproliferative activity against human HL60 cells after 72 hrs by WST1 based assay; settings: HL-60, 72 h
[6] = test system: MCF7; test: Antiproliferative activity against human MCF7 cells after 72 hrs by WST1 based assay; settings: MCF7, 72 h

IC50 [1] | IC50 [2] | IC50 [3] | IC50 [4] | IC50 [5] | IC50 [6] | Compound
10.4 µM | 5.9 µM | 1.9 µM | 2.2 µM | 0.9 µM | 9.4 µM | C=C1C(=O)O[C@@H]2C3O[C@]3(C)CC/C=C(\C)CC[C@@H]12 (stereo partly drawn)
11 µM | 15 µM | 9 µM | 6.2 µM | 7.6 µM | 21 µM | CC(C)=CCCC(C)(O)[C@H]1CC(=O)C(CO)=C[C@@H]1O (stereo partly drawn) [ANTHEMINONE A]
9.4 µM | 19 µM | 8.4 µM | 7.4 µM | 3.2 µM | 15 µM | C=C1C(=O)C[C@@H](C(C)(O)CCC=C(C)C)[C@H](O)[C@H]1O (stereo partly drawn) [ANTHEMINONE C]
